In publication PMC8587047, “Synthesis and Biological Evaluation of Harmirins, Novel Harmine–Coumarin Hybrids as Potential Anticancer Agents” (Molecules, 2021):

Key:
[1] = tested on: SW620; assay: MTT cytotoxicity assay, SW620; format: cell-based; conditions: Homo sapiens, SW-620; MTT, 72 h, mean ± SD; read-out: IC50 SW620
From the text: (§1) We selected four different cancer cell lines for antiproliferative screening in vitro, which we believed would provide sufficient data on the anticancer potential of the prepared harmirins (hepatocellular carcinoma—HepG2, colorectal adenocarcinoma, Dukes’ type C—SW620, colorectal carcinoma—HCT116, and breast adenocarcinoma—MCF-7). Additionally, we included one non-cancer cell line (embryonic kidney—HEK293T) to evaluate harmirins’ selectivity. The commonly used anticancer drug 5-FU and harmine were used as positive controls. Pre-screening was performed using 50 µM of the tested compound. Only compounds that led to more than 50% reduction in mitochondrial metabolic activity at 50 µM concentration were selected for further analysis. The selectivity index (SI) for each harmirin was calculated as a fractional ratio between the IC50 values for HEK293T and the cancer cell line MCF-7 or HCT116 since these two cell lines were the most susceptible to harmirins.
(§2) The experiments were carried out on five human cell lines purchased from American Type Culture Collection (ATCC, PO BOX 1549, manassas, VA 20108, USA): HepG2 (hepatocellular carcinoma; ATCC® HB-8065™), SW620 (colorectal adenocarcinoma; ATCC® CCL-227™), HCT116 (colorectal carcinoma ATCC® CCL-247™), MCF-7 (breast adenocarcinoma, ATCC® HTB-22™), and HEK293T (embryonic kidney cells; ATCC® CRL-3216™). All cell lines were cultured as monolayers and maintained in Dulbecco’s modified Eagle medium (DMEM) (Capricorn Scientific, USA), supplemented with 10% fetal bovine serum (FBS) (Capricorn Scientific, USA), 100 U/mL penicillin, and 100 µg/mL streptomycin (Capricorn Scientific, USA) in a humidified atmosphere with 5% CO2 at 37 °C. Cells were seeded in 96-well plates (Corning, Durham, NC, USA) at 5000–7000 cells per well (depending on the cell doubling time of a specific cell line) in 0.1 mL media and cultured for 24 h. The next day, the medium was aspirated, and cells were treated for 72 h. Only the compounds that led to more than a 50% reduction in mitochondrial metabolic activity at a concentration of 50 µM were selected for further analysis. The following concentrations of selected compounds were used: 25, 10, 5, and 1 µM. Working dilutions were freshly prepared on the day of the testing. A fresh growth medium was added to untreated control cells, which were defined as 100% viable. DMSO (0.13%) in DMEM was considered a negative control. 5-Fluorouracil (5-FU) and harmine were used as positive controls. At the end of treatment, media was removed, and cells were incubated for 1 h with 0.5 mg/mL MTT (Abcam, Cambridge, MA, USA) dissolved in serum-deprived DMEM. The absorbance was directly proportional to cell viability. The MTT-containing media was then removed, and 0.1 mL isopropanol was added per well to lyse cells and dissolve formazan. The optical density was measured at 570 nm using a microplate reader (VICTOR3, PerkinElmer). Each test point was performed in triplicate. The IC50 values (concentration required to decrease viability by 50%) were calculated by using nonlinear regression on the sigmoidal dose–response plots and are expressed as mean ± SD.

[2] = tested on: HepG2; assay: MTT cytotoxicity assay, HepG2; format: cell-based; conditions: Homo sapiens, HepG2; MTT, 72 h, mean ± SD; read-out: IC50 HepG2
From the text: as §1, §2

[3] = tested on: HCT116; assay: MTT cytotoxicity assay, HCT116; format: cell-based, human; conditions: for IC50: Homo sapiens, HCT-116, MTT, 72 h, mean ± SD, read-out: IC50 HCT116; for SI (HCT116): ratio IC50 HEK293T / IC50 HCT116
From the text: as §1, §2

[4] = tested on: MCF-7; assay: MTT cytotoxicity assay, MCF-7; format: cell-based, human; conditions: for IC50: Homo sapiens, MCF7, MTT, 72 h, mean ± SD, read-out: IC50 MCF-7; for SI (MCF-7): ratio IC50 HEK293T / IC50 MCF-7; for activity against MCF-7, fold stronger than 5-FU: compared with 5-FU IC50; for activity against MCF-7, fold higher than harmine: compared with harmine IC50
From the text: as §1, §2

[5] = tested on: HEK293T; assay: MTT cytotoxicity assay, HEK293T (non-cancer); format: cell-based, human; conditions: for IC50: Homo sapiens, HEK-293T, MTT, 72 h, mean ± SD, non-cancer cell line, read-out: IC50 Hek293T
From the text: as §1, §2

melting point	SMILES	IC50 [1] [µM]	IC50 [2] [µM]	IC50 [3] [µM]	SI (HCT116) [3]	IC50 [4] [µM]	SI (MCF-7) [4]	IC50 [5] [µM]	SIs (selectivity towards cancer cells in comparison to HEK293T) ([5]; cancer cell line not specified (MCF-7 or HCT116))	activity against MCF-7, fold stronger than 5-FU [4]	activity against MCF-7, fold higher than harmine [4]
260.5 to 264 °C (dec.)	O=c1cc(OCc2cn(Cc3nccc4c3[nH]c3ccccc34)nn2)c2ccccc2o1 [4a, 4-((1-((9H-Pyrido[3,4-b]indol-1-yl)methyl)-1H-1,2,3-triazol-4-yl)methoxy)-2H-chromen-2-one]	> 50	29.5 ± 3.5	> 50	>1	> 50	>1	> 50	–	–	–
246.5 to 251 °C (dec.)	Cc1ccc2oc(=O)cc(OCc3cn(Cc4nccc5c4[nH]c4ccccc45)nn3)c2c1 [4b, 4-((1-((9H-Pyrido[3,4-b]indol-1-yl)methyl)-1H-1,2,3-triazol-4-yl)methoxy)-6-methyl-2H-chromen-2-one]	> 50	27.3 ± 1.2	> 50	<0.5	35.7 ± 1	0.7	26 ± 1	–	–	–
263.5 to 265 °C (dec.)	O=c1cc(OCc2cn(Cc3nccc4c3[nH]c3ccccc34)nn2)c2cc(Cl)ccc2o1 [4c, 4-((1-((9H-Pyrido[3,4-b]indol-1-yl)methyl)-1H-1,2,3-triazol-4-yl)methoxy)-6-chloro-2H-chromen-2-one]	> 50	> 50	> 50	>1	39.1 ± 3.6	>1.3	> 50	–	–	–
239.5 to 241 °C (dec.)	O=c1cc(OCc2cn(Cc3nccc4c3[nH]c3ccccc34)nn2)c2cc(F)ccc2o1 [4d, 4-((1-((9H-Pyrido[3,4-b]indol-1-yl)methyl)-1H-1,2,3-triazol-4-yl)methoxy)-6-fluoro-2H-chromen-2-one]	> 50	> 50	33.1 ± 7.7	1.4	> 50	<0.9	45.8 ± 0.2	–	–	–
–	O=c1[nH]cc(F)c(=O)[nH]1 [5-FU, 5-fluorouracil, reference compound]	9.4 ± 0.3	5.5 ± 0.6	5.2 ± 2.8	1.6	23.9 ± 5.7	0.3	8.1 ± 0.8	–	–	–
149.5 to 153.5 °C (dec.)	Cc1nc(Cn2cc(COc3cc(=O)oc4ccccc34)nn2)cc2c1[nH]c1ccccc12 [5a, 4-((1-((1-Methyl-9H-pyrido[3,4-b]indol-3-yl)methyl)-1H-1,2,3-triazol-4-yl)methoxy)-2H-chromen-2-one]	> 50	17.8 ± 1.8	> 50	<0.1	> 50	<0.1	6.5 ± 1.6	–	–	–
263 to 267.5 °C (dec.)	Cc1ccc2oc(=O)cc(OCc3cn(Cc4cc5c([nH]c6ccccc65)c(C)n4)nn3)c2c1 [5b, 6-Methyl-4-((1-((1-methyl-9H-pyrido[3,4-b]indol-3-yl)methyl)-1H-1,2,3-triazol-4-yl)methoxy)-2H-chromen-2-one]	> 50	16.8 ± 1.4	3.2 ± 0.5	8.6	> 50	<0.6	27.3 ± 2.1	> 7.2	–	–
254 to 257.5 °C (dec.)	Cc1nc(Cn2cc(COc3cc(=O)oc4ccc(Cl)cc34)nn2)cc2c1[nH]c1ccccc12 [5c, 6-Chloro-4-((1-((1-methyl-9H-pyrido[3,4-b]indol-3-yl)methyl)-1H-1,2,3-triazol-4-yl)methoxy)-2H-chromen-2-one]	> 50	18.5 ± 2.3	7.1 ± 0.7	1.2	15 ± 1.3	0.6	8.5 ± 0.3	–	–	–
259 to 261.5 °C (dec.)	Cc1nc(Cn2cc(COc3cc(=O)oc4ccc(F)cc34)nn2)cc2c1[nH]c1ccccc12 [5d, 6-Fluoro-4-((1-((1-methyl-9H-pyrido[3,4-b]indol-3-yl)methyl)-1H-1,2,3-triazol-4-yl)methoxy)-2H-chromen-2-one]	> 50	> 50	> 50	<0.1	–	<0.1	7 ± 1.6	–	–	–
235.5 to 238 °C (dec.)	Cc1nccc2c1[nH]c1ccc(OCc3cn(-c4cc(=O)oc5ccccc45)nn3)cc12 [11a, 4-(4-(((1-Methyl-9H-pyrido[3,4-b]indol-6-yl)oxy)methyl)-1H-1,2,3-triazol-1-yl)-2H-chromen-2-one]	8.4 ± 0.3	6.4 ± 0.2	3.3 ± 0.4	2	2.2 ± 0.2	3	6.4 ± 0.2	–	9–13 fold	5–7 fold
235 to 242 °C (dec.)	Cc1ccc2oc(=O)cc(-n3cc(COc4ccc5[nH]c6c(C)nccc6c5c4)nn3)c2c1 [11b, 6-Methyl-4-(4-(((1-methyl-9H-pyrido[3,4-b]indol-6-yl)oxy)methyl)-1H-1,2,3-triazol-1-yl)-2H-chromen-2-one]	> 50	13.6 ± 0.8	> 50	<0.4	10.4 ± 0.8	2	21.3 ± 4.1	–	–	–
220 to 225 °C (dec.)	Cc1nccc2c1[nH]c1ccc(OCc3cn(-c4cc(=O)oc5ccc(Cl)cc45)nn3)cc12 [11c, 6-Chloro-4-(4-(((1-methyl-9H-pyrido[3,4-b]indol-6-yl)oxy)methyl)-1H-1,2,3-triazol-1-yl)-2H-chromen-2-one]	30.3 ± 3.9	14 ± 1.2	15.5 ± 4.4	0.8	13.3 ± 1.5	0.9	12.2 ± 1	–	–	–
224.5 to 225.5 °C (dec.)	Cc1nccc2c1[nH]c1ccc(OCc3cn(-c4cc(=O)oc5ccc(F)cc45)nn3)cc12 [11d, 6-Fluoro-4-(4-(((1-methyl-9H-pyrido[3,4-b]indol-6-yl)oxy)methyl)-1H-1,2,3-triazol-1-yl)-2H-chromen-2-one]	12.7 ± 1.8	14.2 ± 0.4	2.7 ± 0.4	–	1.9 ± 0.2	–	6.9 ± 0.6	–	9–13 fold	5–7 fold
–	Cc1nccc2c1[nH]c1cc(OCc3cn(-c4cc(=O)oc5ccccc45)nn3)ccc12 [12a, 4-(4-(((1-Methyl-9H-pyrido[3,4-b]indol-7-yl)oxy)methyl)-1H-1,2,3-triazol-1-yl)-2H-chromen-2-one]	30 ± 3.5	19.8 ± 1.1	10 ± 3.4	1.5	21.6 ± 3.7	0.7	14.7 ± 0.8	–	–	–
244 to 247 °C (dec.)	Cc1nccc2c1[nH]c1cc(OCc3cn(-c4cc(=O)oc5ccc(Cl)cc45)nn3)ccc12 [12c, 6-Chloro-4-(4-(((1-methyl-9H-pyrido[3,4-b]indol-7-yl)oxy)methyl)-1H-1,2,3-triazol-1-yl)-2H-chromen-2-one]	> 50	> 50	37.6 ± 6.9	1.2	38.2 ± 2.5	1.2	46.2 ± 4.7	–	–	–
